The source made the active and inactive calls. The calls are words filed in the database; no cut-off is given here.
Key:
BT-474 [1] = assay: Antiproliferative activity against human BT-474 cells assessed as inhibition of cell viability at 10 uM measured after 72 hrs by CellTiter 96 Aqueous One Solution Cell Proliferation Assay relative to control; assay type: functional
Homo sapiens = species: Homo sapiens; assay: Inhibition of N-terminal HSP90 (unknown origin) at 10 uM by AlphaLISA assay
BT-474 [2] = assay: Antiproliferative activity against human BT-474 cells assessed as inhibition of cell viability at 10 uM measured after 72 hrs by CellTiter 96 Aqueous One Solution Cell Proliferation Assay; assay type: functional, cell-based
JIMT-1 = assay: Antiproliferative activity against human JIMT-1 cells assessed as inhibition of cell viability at 10 uM measured after 72 hrs by CellTiter 96 Aqueous One Solution Cell Proliferation Assay; assay type: functional, cell-based
HEK293 = assay: Cytotoxicity against HEK293 cells assessed as reduction in cell viability at 10 uM measured after 72 hrs by CellTiter 96 Aqueous One Solution Cell Proliferation Assay; assay type: toxicity, cell-based; details: human, hek293, 72 h

SMILES | inhibition at 10 µM (BT-474 [1]) [%] | inhibition (Homo sapiens) | Activity (BT-474 [2]) | Activity (JIMT-1) | Activity (HEK293)
COc1c(C(=O)Nc2ccc3c(C)nn(CCN4CCOCC4)c3c2)ccc2c1C=CC(C)(C)O2 | > 50 | – | – | – | –
CC(C)c1cc(-c2n[nH]c(=O)n2-c2ccc3c(ccn3C)c2)c(O)cc1O | – | Active | – | – | –
COCCn1cc(NC(=O)c2ccc3c(c2OC)C=CC(C)(C)O3)c2cccnc21 | – | – | Active | Active | Toxic
COCCn1cc(NC(=O)c2ccc3c(c2OC)C=CC(C)(C)O3)c2cncnc21 | – | – | Active | Active | Toxic
COc1c(C(=O)Nc2nn(CCC3CCN(C)CC3)c3ccccc23)ccc2c1C=CC(C)(C)O2 | > 50 | – | – | – | –
COCCn1cc(NC(=O)c2ccc3c(c2OC)C=CC(C)(C)O3)c2ccccc21 | – | – | Active | Active | Toxic

Source: ChEMBL document CHEMBL5608181, “Discovery of indazole inhibitors for heat shock protein 90 as anti-cancer agents” (Eur J Med Chem, 2024)
